What is called EC50 is the concentration needed to bring the measured effect to its halfway point.

The target of data set [1] is T1, aryl hydrocarbon receptor (AhR) (Homo sapiens, UniProt P35869).
T1 construct: endogenous in cells; host or cells: HepG2
T1 sequence (P35869 11-848): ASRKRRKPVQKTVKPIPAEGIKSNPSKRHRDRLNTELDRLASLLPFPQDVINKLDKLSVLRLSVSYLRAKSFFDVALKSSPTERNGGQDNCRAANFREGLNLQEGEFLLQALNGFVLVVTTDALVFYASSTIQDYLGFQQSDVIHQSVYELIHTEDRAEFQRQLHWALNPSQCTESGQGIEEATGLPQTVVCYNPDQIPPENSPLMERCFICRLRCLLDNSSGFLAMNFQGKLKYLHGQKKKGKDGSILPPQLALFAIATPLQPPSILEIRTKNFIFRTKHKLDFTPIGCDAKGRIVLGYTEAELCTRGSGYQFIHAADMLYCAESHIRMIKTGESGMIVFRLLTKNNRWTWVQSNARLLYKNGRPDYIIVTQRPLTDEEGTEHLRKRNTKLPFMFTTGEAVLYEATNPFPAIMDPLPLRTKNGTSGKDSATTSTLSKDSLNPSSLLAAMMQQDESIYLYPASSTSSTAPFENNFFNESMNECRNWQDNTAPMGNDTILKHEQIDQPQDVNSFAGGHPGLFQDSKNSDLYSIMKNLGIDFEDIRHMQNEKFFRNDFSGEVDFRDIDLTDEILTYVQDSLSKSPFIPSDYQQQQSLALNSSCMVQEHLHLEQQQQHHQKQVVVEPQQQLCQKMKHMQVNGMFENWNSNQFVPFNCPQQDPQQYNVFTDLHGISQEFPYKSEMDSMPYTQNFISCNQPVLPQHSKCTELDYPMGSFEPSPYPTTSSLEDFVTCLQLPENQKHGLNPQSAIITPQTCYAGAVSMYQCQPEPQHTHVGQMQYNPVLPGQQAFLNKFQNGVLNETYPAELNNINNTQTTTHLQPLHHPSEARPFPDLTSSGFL
Description: AhR luciferase reporter assay in HepG2 cells. Type of data set: cell-based. The procedure:
HepG2 cells were transiently transfected overnight with the construct (1200 bp portion of the human CYP1A1 promoter region containing 2 copies of the functional consensus sequence for the DRE in luc2P luciferase vector (SwitchGear Genomics cat# 114555, Menlo Park, CA) using lipofectin (Invitrogen Life Technologies) at 500 ng construct per million cells. Following transfection, the cells were replated in a 96-well format and dosed for 24 h with 0.1% (v/v) DMSO vehicle, 3-MC at 0.05, 0.1, 0.5, 1, 5, 10 μM, and A-998679 at 1.5625, 3.125, 6.25, 12.5, 25, and 50 μM. Luminescence signal was generated using the Dual-Luciferase Reporter Assay System (Promega, Madison, WI) and detected with a Tecan Genios Pro reader (Männedorf, Switzerland).

Another data set concerns the target T2, AhR (Homo sapiens, UniProt P35869).
T2 construct: endogenous in cells; host or cells: HepG2
T2 sequence (P35869 11-848): T1 sequence (P35869 11-848)
Description: AhR nuclear translocation assay in HepG2 cells. Type of data set: cell-based. The following applies: for AhR nuclear staining (% positive cells) 2 h: vehicle 15.6; for AhR nuclear staining (% positive cells) 24 h: vehicle 3.4. The procedure: HepG2 cells were plated in Lab-Tek II Chamber slides (Nalgene, Rochester, NY) at a seeding density of 50,000 cells/well. The cells were allowed to attach overnight and were treated for 2 h or 24 h with 10 or 40 μM A-998679, 2 μM 3-methylchloranthrene (3-MC) as a positive control, or 0.1% (v/v) DMSO vehicle. The cells were fixed in fresh 3% paraformaldehyde solution in PBS followed by a PBS wash, and were then permeabilized for 5 min using 0.2% Triton X-100 in PBS followed by another PBS wash. The cells were then incubated with blocking buffer consisting of 1% BSA/PBS solutions and immediately incubated with a 1:50 dilution of rabbit polyclonal antibody to AhR (Abcam, Cambridge, MA catalog# 63636) for 1 h at 37°C. Cells were then washed with PBS, re-blocked for 10 min, and stained with an Alexa 546 donkey anti-rabbit secondary antibody (diluted 1:200; Invitrogen Life Technologies) for 45 min at 37°C. The cells were then washed with PBS, stained with 0.5 μM Hoescht solution for 15 min, and again washed with PBS. The chamber slides were sealed and examined under the microscope. Images were acquired with a SPOT RT SE digital camera (Diagnostic Instruments, Sterling Heights, MI) mounted on a Leica (Wetzlar, Germany) DMIRE inverted florescence microscope using a 20× objective. Image acquisition was done using Metamorph® software (Molecular Devices, Sunnyvale, CA) and percent translocation of the AhR probe was quantitated using MetaXpress (Molecular Devices). Twenty microscope fields were evaluated per well (~3000–6000 cells/well).

Another data set concerns the target T3, rat Cyp2c11 (Rattus norvegicus, UniProt P08683).
T3 construct: purchased BD Gentest; host or cells: baculovirus infected insect cells
The data set is described as follows: Recombinant rat Cyp phenotype profiling, 2C11. The class given is in vitro ADME. The settings on record: 60 min. On the procedure: Identification of the drug metabolizing enzymes (DMEs) of A-998679 was studied in cDNA expressed recombinant enzymes prepared from baculovirus infected insect cells over-expressing rat Cyp isoforms (BD Gentest, Woburn, MA) as listed in Table 2. Incubations were conducted in duplicate using Supersomes. The incubation mixture contained 100 pmol/ml of enzymes, except for Cyp1a1 (200 pmol/ml), 0.1 or 0.21 μM of [^3H]A-998679 in 100 mM phosphate buffer (pH 7.4). Reactions were initiated with the addition of NADPH at a final concentration of 1 mM and incubated at 37°C for 60 min. At the end of the incubation period, the incubations were terminated by the addition of acetonitrile/ethanol (50/50, v/v) solution. Insect control samples lacking expressed enzyme were used as negative control. The degree of metabolism of A-998679 was assessed by percent of parent remaining using the radio-HPLC method described below.
Radiolabeled components from the above assays were profiled following separation by HPLC with on line radioflow detector. The system consisted of an Agilent 1100 Series quaternary pump and autosampler connected to a Packard 500TR flow scintillation detector. The data were processed using the Radiomatic™ Flo-one® software v3.65. The scintillant (Perkin Elmer FLO-SCINT™ III) flow was maintained at 3 ml/min. […]

T3 sequence (P08683 whole entry): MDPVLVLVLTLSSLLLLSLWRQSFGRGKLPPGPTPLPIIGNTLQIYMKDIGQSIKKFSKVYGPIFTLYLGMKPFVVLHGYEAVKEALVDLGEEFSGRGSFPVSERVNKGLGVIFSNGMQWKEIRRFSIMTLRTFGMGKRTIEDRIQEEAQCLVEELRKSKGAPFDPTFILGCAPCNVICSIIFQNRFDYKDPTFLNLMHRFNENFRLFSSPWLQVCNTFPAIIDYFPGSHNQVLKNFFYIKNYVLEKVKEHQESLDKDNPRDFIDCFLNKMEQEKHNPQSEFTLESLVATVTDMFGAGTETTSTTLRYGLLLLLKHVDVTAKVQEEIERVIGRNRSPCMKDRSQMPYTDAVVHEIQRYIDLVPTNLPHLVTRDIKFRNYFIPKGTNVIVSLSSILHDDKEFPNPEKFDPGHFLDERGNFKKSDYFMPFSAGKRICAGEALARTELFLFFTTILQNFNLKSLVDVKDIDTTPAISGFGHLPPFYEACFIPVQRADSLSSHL

Turning to `N#Cc1cccc(-c2noc(-c3cccnc3)n2)c1` [A-998679, 3-(5-pyridin-3-yl-1,2,4-oxadiazol-3-yl) benzonitrile], the “lowest level activating the DRE” value in data set [1] (gene reporter assay) is given as ~ 6 μM. The EC50 in data set [1] (luciferase reporter with human DRE construct, 24 h, read-out: EC50, activation of AhR signaling) is 16.2 µM. In addition, the “maximal increase over vehicle” value in data set [1] (luciferase reporter, 24 h) was 56 fold. Moreover, the results for the “AhR nuclear staining (% positive cells) 2 h” value on AhR (10 μM) and at AhR (40 μM) were 18.8 % positive cells and 29.6 % positive cells, respectively. Further, the figures for the “AhR nuclear staining (% positive cells) 24 h” value at AhR (10 μM) and at AhR (40 μM) were 4.5 % positive cells and 6.3 % positive cells, respectively. Also, the “% parent remaining” value is 78.1% at rat Cyp2c11 (recombinant rat Cyp 2C11, 0.10 μM) and 28.8% on rat Cyp2c11 (recombinant rat Cyp 2C11, 0.21 μM).

These data come from PMC3481155, “AhR activation underlies the CYP1A autoinduction by A-998679 in rats” (Frontiers in Genetics, 2012).
